US8580309B2, “Antimicrobial mixtures” (priority 2006, dated 2013)

Experiments:
[1] = system: Staphylococcus aureus NCTC 6571; experiment: Lethal photosensitisation of S. aureus by gold nanoparticle-photosensitiser mixtures under white light, viable counting; type: cell-based; conditions: preliminary experiments, 30 minutes light exposure
Description: Gold nanoparticles (2.0 nm diameter; British Biocell International) in water (15×10^13 particles per ml) were mixed with an equal volume of an aqueous solution of toluidine blue O (40 μM) and left at room temperature for 15 minutes. 100 μl of the gold-TB solution was added to 100 μl of a suspension of Staphylococcus aureus NCTC 6571 in phosphate buffered saline (PBS) and this was irradiated with white light from a fluorescent white lamp for 10 minutes. Controls consisted of:
(i) TB (final concentration=10 μM) and bacteria, irradiated for the same period of time,
(ii) nanogold (diluted 1:1 with water) and bacteria, irradiated for the same period of time,
(iii) bacteria without TB or nanogold, not irradiated (“control”).
After irradiation, the number of surviving bacteria was determined by viable counting. […] Note that the TB concentration and light energy dose used were designed to give sub-optimal kills so that differences in efficacy of the TB and the TB-nanogold could be discerned. Preliminary experiments using 30 minutes light exposure achieved total kills of the bacterial suspensions in both cases.
Gold nanoparticles of approximately 15 nm in diameter (batches NN1 and NN2 above) were mixed with an equal volume of aqueous toluidine blue O (TB) and left at room temperature for 15 minutes. TB was used at a final concentration of 1, 5, 10, 20 or 50 μM. […]

[2] = system: Staphylococcus aureus NCTC 6571; experiment: Lethal photosensitisation of S. aureus by TBO-tiopronin-gold nanoparticle conjugate, white light, viable counting; type: cell-based; conditions: irradiated with white light for any length of time (15, 30, 45 minutes)

SMILES: Cc1cc2nc3ccc(N(C)C)cc3[s+]c2cc1N.[Cl-] [TB only, toluidine blue O]
- kill of the bacterial suspensions (in words) [1]: total kills
- antibacterial effect (in words) [2]: no effect
